# Tests used:
# Assay type in all cases: cell-based
# G551D-CFTR = target: T1, G551D-CFTR (Homo sapiens, UniProt P13569, G551D); experiment: Apical membrane current (Ussing chamber) in FRT cells expressing G551D-CFTR
# T1 construct: expressed in transfected cells; host or cells: Fisher rat thyroid (FRT) cells; provided by Dr. Alan Verkman
# Description: Snapwell inserts containing CFTR-expressing FRT and primary culture of human nasal epithelial cells were mounted in Ussing chambers (Physiologic Instruments, San Diego, CA). […] For FRT cells, the apical bath was filled with a half-Cl^- solution and the basolateral bath was filled with HCO3^—buffered solution, and the basolateral membrane was permeabilized with 250 μg/mL amphotericin B. For primary cultures of human nasal epithelial cells, symmetrical HCO3^—buffered solutions were used and ENaC was inhibited by pre-treatment with amiloride (100 μM). […] Apical membrane current and short-circuit current were measured with an EVC4000 Multi-Channel V/I Clamp (World Precision Instruments, Sarasota, FL) and recorded using PowerLab 4/35 (AD Instruments, Castle Hill, Australia). Data were collected and analyzed with ADInstruments acquisition software Labchart Pro 7 software. The sampling rate was 4 Hz.
# ΔF508-CFTR [1] = target: T2, ΔF508-CFTR (Homo sapiens, UniProt P13569, DEL508-508); experiment: Apical membrane current of VX-809-rescued ΔF508-CFTR in FRT cells; parameters: expressed in transfected cells; host or cells: Fisher rat thyroid (FRT) cells, co-expressing halide sensor YFP-H148Q/I152L; provided by Dr. Alan Verkman; settings: 48 h, combined with 5 μM VX-809, 10 μM CP7q or 5 μM VX-770
# Description: Snapwell inserts containing CFTR-expressing FRT and primary culture of human nasal epithelial cells were mounted in Ussing chambers (Physiologic Instruments, San Diego, CA). Forskolin, genistein, CP7q and CFTRinh-172 were added to the apical and basolateral bath solution. For FRT cells, the apical bath was filled with a half-Cl^- solution and the basolateral bath was filled with HCO3^—buffered solution, and the basolateral membrane was permeabilized with 250 μg/mL amphotericin B. For primary cultures of human nasal epithelial cells, symmetrical HCO3^—buffered solutions were used and ENaC was inhibited by pre-treatment with amiloride (100 μM). All cells were bathed for a 20 min stabilization period and aerated with 95% O2 / 5% CO2 at 37°C. Apical membrane current and short-circuit current were measured with an EVC4000 Multi-Channel V/I Clamp (World Precision Instruments, Sarasota, FL) and recorded using PowerLab 4/35 (AD Instruments, Castle Hill, Australia). Data were collected and analyzed with ADInstruments acquisition software Labchart Pro 7 software. The sampling rate was 4 Hz.
# ΔF508-CFTR [2] = target: T2, ΔF508-CFTR; experiment: YFP quenching assay of VX-809-mediated rescue in A549 cells expressing ΔF508-CFTR; parameters: expressed in transfected cells; host or cells: Fisher rat thyroid (FRT) cells, co-expressing halide sensor YFP-H148Q/I152L; provided by Dr. Alan Verkman; settings: 48 h, combined with 5 μM VX-809, 10 μM CP7q or 5 μM VX-770, vs VX-809 alone
# Description: Fisher rat thyroid (FRT) cells expressing human wild type-, ΔF508- and G551D-CFTR with a halide sensor YFP-H148Q/I152L were generously provided by Dr. Alan Verkman (University of California, San Francisco) and grown in F-12 Modified Coon´s medium supplemented with 10% FBS, 2 mM glutamine, 100 units/ml penicillin and 100 μg/ml streptomycin [30]. A549 cells were obtained from Korean Cell Line Bank (Seoul, Korea) and the cells were stably transfected with human ΔF508-CFTR and the halide sensor YFP-H148Q/I152L/F46L, and maintained in RPMI-1640 medium containing 10% fetal bovine serum (FBS), 100 units/ml penicillin and 100 μg/ml streptomycin. […]
# FRT cells expressing wild type- or ΔF508-CFTR with the halide sensor YFP-H148Q/I152L were plated in 96-well black-walled microplates (Corning Inc., Corning, NY) at a density of 2 x10^4cells per well. […] Assays were done using FLUO star Omega microplate reader (BMG Labtech, Ortenberg, Germany) and MARS Data Analysis Software (BMG Labtech). […] After 10 min, 96-well plates were transferred to the microplate reader preheated to 37°C for fluorescence assay. Each well was assayed individually for CFTR-mediated I^- influx by recording fluorescence continuously (200 ms per point) for 2 s (baseline), then 100 μL of 140 mM I^- solution was added at 2 s and then YFP fluorescence was recorded for 14 s. […]
# T1 sequence (P13569 whole entry G551D): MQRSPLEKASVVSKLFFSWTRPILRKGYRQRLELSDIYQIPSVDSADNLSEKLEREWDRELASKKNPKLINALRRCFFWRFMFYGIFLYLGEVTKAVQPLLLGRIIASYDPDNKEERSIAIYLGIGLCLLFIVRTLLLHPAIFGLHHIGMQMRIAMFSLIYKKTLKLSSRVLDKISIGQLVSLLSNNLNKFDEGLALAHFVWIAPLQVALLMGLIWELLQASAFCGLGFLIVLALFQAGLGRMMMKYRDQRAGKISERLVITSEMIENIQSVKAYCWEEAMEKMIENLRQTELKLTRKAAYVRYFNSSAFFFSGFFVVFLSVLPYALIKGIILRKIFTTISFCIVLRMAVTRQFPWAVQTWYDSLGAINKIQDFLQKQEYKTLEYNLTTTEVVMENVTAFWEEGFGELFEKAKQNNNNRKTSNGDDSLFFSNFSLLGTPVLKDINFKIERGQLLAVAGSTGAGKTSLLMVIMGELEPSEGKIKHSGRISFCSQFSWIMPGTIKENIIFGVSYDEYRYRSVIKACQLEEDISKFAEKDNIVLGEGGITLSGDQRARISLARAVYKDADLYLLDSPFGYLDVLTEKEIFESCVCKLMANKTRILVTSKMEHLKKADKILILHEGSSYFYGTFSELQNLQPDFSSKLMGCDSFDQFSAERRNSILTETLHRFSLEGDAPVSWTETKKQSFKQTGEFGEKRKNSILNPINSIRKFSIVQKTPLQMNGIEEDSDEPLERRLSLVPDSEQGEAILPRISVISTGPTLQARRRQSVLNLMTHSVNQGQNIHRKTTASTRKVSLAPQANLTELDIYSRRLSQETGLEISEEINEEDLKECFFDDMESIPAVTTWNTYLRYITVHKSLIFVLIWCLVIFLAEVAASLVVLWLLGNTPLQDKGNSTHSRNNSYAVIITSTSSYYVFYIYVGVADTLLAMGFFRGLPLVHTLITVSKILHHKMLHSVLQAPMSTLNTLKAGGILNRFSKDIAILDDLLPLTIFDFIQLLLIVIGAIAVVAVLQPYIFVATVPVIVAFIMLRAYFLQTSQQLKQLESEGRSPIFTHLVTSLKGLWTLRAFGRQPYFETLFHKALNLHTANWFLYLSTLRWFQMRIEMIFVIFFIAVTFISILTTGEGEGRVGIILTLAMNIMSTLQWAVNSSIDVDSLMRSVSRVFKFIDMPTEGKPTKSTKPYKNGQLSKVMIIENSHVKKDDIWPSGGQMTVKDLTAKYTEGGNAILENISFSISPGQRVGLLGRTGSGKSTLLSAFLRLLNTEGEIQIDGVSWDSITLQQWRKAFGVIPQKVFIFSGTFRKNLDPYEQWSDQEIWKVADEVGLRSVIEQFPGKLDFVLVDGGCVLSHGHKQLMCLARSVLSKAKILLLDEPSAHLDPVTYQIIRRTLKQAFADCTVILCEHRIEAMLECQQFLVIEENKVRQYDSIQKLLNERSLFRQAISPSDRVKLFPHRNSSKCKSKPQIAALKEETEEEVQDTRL
# T2 sequence (P13569 with tags, fused parts or gaps DEL508-508): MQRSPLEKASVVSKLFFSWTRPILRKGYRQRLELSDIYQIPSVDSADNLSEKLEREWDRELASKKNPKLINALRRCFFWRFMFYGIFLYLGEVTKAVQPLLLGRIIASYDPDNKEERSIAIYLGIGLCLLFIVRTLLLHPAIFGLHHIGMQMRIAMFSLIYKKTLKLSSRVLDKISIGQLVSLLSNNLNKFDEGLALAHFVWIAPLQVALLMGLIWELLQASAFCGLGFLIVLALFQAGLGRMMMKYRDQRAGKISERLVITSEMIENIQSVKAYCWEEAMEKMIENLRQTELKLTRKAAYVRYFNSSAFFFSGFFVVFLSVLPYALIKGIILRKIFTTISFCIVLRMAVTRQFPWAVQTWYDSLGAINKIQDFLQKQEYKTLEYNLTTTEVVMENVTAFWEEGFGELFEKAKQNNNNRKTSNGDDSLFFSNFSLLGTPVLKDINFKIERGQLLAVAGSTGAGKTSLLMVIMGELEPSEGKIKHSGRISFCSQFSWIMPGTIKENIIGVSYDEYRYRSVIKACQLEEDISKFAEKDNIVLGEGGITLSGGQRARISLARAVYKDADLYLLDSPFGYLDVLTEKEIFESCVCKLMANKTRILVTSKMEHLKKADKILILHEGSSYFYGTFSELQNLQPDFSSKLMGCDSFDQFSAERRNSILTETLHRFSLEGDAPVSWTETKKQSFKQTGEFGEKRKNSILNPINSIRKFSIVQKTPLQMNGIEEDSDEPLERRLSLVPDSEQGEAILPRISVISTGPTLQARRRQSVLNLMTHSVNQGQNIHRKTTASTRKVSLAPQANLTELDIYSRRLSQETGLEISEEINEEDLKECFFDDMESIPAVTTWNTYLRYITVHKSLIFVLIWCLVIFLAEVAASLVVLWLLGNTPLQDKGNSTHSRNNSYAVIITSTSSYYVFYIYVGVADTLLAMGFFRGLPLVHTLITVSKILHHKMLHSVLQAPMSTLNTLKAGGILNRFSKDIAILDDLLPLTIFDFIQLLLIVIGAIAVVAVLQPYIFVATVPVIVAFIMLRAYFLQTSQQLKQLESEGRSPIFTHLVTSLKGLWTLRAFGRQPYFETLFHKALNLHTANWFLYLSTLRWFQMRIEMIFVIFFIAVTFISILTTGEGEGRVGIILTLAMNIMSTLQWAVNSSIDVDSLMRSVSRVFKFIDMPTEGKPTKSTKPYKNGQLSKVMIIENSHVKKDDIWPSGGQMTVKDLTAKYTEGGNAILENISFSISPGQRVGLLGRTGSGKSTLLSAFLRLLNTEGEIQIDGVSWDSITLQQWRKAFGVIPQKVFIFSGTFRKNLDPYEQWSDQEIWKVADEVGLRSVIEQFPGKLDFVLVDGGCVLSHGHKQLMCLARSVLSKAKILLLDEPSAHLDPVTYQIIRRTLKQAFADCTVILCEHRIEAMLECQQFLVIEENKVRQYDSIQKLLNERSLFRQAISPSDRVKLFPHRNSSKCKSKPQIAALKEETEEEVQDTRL
smiles,measurement,setting,value
"COc1ccc(C2CC(c3ccc(O)cc3O)=NN2c2ccc(S(N)(=O)=O)cc2)c(OC)c1 (stereo not drawn) [Compound 7q, 4-[3-(2,4-dihydroxyphenyl)-5-(2,4-dimethoxyphenyl)-4,5-dihydro-1H-pyrazol-1-yl] benzenesulfonamide]",Potentiation of G551D-CFTR Cl- current compared with VX-770,"G551D-CFTR; 20 μM forskolin, 30 μM CP7q vs 10 μM VX-770",comparable to VX-770
same,Potentiation of G551D-CFTR Cl- current relative to genistein,"G551D-CFTR; 20 μM forskolin, 30 μM CP7q vs 50 μM genistein",1.9 times
same,Potentiation of G551D-CFTR Cl- current,"G551D-CFTR; 20 μM forskolin, 50 μM genistein, 10 μM VX-770, CP7q",significantly potentiated
same,Maximal potentiation of G551D-CFTR chloride conductance relative to genistein,G551D-CFTR; higher than genistein,1.9 fold
same,Effect on apical membrane current of VX-809-rescued ΔF508-CFTR,ΔF508-CFTR [1],strongly increased
same,Effect on functional rescue of ΔF508-CFTR by VX-809 (iodide influx),ΔF508-CFTR [2],significantly increased

# — PMC4749168, “Potentiation of ΔF508- and G551D-CFTR-Mediated Cl^- Current by Novel Hydroxypyrazolines” (PLoS ONE, 2016)
